US8466170B2, “7-azaindole derivatives” (Merck Patent GmbH, priority 2008, dated 2013)

Assays:
Assay type in all cases: biochemical
SGK1 = biological target: T1, SGK1 (Homo sapiens, UniProt O00141); assay: SGK1 enzyme inhibition (filter binding method); conditions: Target SGK1
T1 sequence (O00141 1-431): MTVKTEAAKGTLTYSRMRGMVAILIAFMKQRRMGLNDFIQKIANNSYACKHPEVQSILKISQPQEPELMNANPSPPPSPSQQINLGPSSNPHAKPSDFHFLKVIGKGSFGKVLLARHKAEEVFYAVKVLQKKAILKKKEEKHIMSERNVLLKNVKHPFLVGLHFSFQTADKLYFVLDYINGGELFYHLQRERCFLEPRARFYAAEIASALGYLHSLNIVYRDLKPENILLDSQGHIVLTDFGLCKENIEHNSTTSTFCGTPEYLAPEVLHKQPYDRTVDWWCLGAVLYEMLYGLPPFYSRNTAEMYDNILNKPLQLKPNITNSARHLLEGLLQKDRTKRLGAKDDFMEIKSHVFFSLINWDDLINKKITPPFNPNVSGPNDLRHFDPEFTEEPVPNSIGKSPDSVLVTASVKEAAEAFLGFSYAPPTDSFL
Excerpt: The inhibition of SGK1 protein kinase can be determined in the filter binding method.

MKK1 = MKK1 (Homo sapiens, UniProt Q02750); assay: MKK1 enzyme inhibition; conditions: Target MKK1
SAPK3 = biological target: T2, SAPK3 (Homo sapiens, UniProt P53778); assay: SAPK3 enzyme inhibition; conditions: Target SAPK3
T2 sequence (P53778 1-367): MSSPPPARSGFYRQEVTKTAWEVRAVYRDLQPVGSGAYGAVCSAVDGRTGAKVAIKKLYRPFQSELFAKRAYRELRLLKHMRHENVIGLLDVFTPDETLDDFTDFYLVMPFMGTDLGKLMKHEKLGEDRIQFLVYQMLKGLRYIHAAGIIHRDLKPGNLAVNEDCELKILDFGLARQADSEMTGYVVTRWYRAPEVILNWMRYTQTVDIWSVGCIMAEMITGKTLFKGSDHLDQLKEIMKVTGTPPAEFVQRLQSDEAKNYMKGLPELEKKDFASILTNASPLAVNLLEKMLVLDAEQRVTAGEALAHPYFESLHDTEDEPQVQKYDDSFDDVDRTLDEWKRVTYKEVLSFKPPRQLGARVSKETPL

AMPK = AMPK enzyme inhibition; conditions: Target AMPK
CHK2 = CHK2 (Homo sapiens, UniProt O96017); assay: CHK2 enzyme inhibition; conditions: Target CHK2
GSK3-beta = GSK3-beta (Homo sapiens, UniProt P49841); assay: Measurement of the GSK3-beta activity; conditions: Target GSK3-beta; read-out: Inhibition IC50 (enzyme)
Method: The GSK3-beta activity can be measured analogously to WO 2008/078196. GSK3b (5-20 mU diluted in 20 mM MOPS ph 7.5, 1 mM EDTA, […], 0.01% Brj35, 5% glycerol, 0.1% beta-mercaptoethanol, 1 mg/ml of BSA) is measured against phospho-GS2 peptide ([…](PO4)EDEEE) in a final volume of 25.5 μl containing 8 mM MOPS ph 7.0, 0.2 mM EDTA, 20 μM phospho GS2 peptide, 10 mM magnesium acetate and 0.005 mM [33P-g-ATP] (50-1000 cpm/pmol) and is incubated at room temperature for 30 minutes. The assay is stopped by addition of 5 μl of 0.5 M (3%) orthophosphoric acid and is then harvested on P81 unifilter plates with a wash buffer (50 mM orthophosphoric acid).

Met kinase = biological target: T3, Met kinase (Homo sapiens, UniProt P08581); assay: Met kinase flashplate method; conditions: Target Met kinase; read-out: Inhibition IC50 (enzyme)
T3 construct: 6His (N); purchased Upstate 14-526; host or cells: Sf21 insect cells (S. frugiperda), baculovirus
Excerpt: According to the manufacturer's data (Met, active, Upstate, catalogue No. 14-526), Met kinase is expressed for the purposes of protein production in insect cells (Sf21; S. frugiperda) and subsequent affinity-chromatographic purification as “N-terminal 6His-tagged” recombinant human protein in a baculovirus expression vector.
The kinase activity can be measured using various available measurement systems. In the scintillation proximity method (Sorg et al., J. of Biomolecular Screening, 2002, 7, 11-19), the flashplate method or the filter binding test, the radioactive phosphorylation of a protein or peptide as substrate is measured using radioactively labelled ATP (^32P-ATP, ^33P-ATP). In the case of the presence of an inhibitory compound, a reduced radioactive signal, or none at all, can be detected. Furthermore, homogeneous time-resolved fluorescence resonance energy transfer (HTR-FRET) and fluoroescence polarisation (FP) technologies can be used as assay methods (Sills et al., J. of Biomolecular Screening, 2002, 191-214).
The test plates used are 96-well Flashplate^R microtitre plates from Perkin Elmer (Cat. No. SMP200). […] The measurement of the bound radioactivity is carried out by means of a scintillation measuring instrument (Topcount NXT, Perkin-Elmer).
The full value used is the inhibitor-free kinase reaction. […] The inhibitory values (IC50) are determined using the RS1_MTS program. […]

T3 sequence (P08581 974-1390 limits assumed): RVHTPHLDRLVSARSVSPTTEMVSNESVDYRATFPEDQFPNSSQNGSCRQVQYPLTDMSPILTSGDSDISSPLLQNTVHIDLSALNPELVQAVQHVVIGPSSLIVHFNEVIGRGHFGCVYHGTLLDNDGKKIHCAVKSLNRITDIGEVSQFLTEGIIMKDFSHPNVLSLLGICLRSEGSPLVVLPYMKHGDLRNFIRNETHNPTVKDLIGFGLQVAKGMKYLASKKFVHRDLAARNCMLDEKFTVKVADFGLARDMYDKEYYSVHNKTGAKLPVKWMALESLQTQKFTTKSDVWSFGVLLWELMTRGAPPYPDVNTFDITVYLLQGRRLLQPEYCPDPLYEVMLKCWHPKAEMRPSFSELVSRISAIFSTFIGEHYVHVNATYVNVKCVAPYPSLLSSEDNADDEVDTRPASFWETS
Sequence of CHK2 (O96017 whole entry, species assumed): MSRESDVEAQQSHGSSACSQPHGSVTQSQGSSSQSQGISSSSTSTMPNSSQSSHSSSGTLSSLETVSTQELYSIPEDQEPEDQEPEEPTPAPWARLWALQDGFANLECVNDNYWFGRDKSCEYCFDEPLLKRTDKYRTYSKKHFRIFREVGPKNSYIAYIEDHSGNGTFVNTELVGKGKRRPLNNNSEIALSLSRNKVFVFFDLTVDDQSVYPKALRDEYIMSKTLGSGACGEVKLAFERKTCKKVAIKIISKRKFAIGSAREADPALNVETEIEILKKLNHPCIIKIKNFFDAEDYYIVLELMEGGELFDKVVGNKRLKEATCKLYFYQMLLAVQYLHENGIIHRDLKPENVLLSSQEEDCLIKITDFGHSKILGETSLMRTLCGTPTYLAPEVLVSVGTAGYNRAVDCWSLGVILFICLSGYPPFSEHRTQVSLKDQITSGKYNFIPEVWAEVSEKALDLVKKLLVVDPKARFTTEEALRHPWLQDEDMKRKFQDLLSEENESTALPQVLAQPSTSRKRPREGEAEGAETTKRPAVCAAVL
Sequence of GSK3-beta (P49841 whole entry, species assumed): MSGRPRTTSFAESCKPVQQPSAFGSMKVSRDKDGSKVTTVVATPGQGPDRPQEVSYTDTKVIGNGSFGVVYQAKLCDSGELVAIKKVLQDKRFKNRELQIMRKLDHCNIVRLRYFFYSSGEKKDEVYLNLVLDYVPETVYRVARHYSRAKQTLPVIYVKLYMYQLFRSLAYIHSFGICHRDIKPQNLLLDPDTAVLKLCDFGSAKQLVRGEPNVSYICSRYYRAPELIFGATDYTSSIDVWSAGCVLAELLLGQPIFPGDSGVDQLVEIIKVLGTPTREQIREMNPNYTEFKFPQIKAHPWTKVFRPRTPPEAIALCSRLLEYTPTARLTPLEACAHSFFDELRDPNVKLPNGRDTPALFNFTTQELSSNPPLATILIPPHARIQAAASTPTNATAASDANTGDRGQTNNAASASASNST
Sequence of MKK1 (Q02750 whole entry, species assumed): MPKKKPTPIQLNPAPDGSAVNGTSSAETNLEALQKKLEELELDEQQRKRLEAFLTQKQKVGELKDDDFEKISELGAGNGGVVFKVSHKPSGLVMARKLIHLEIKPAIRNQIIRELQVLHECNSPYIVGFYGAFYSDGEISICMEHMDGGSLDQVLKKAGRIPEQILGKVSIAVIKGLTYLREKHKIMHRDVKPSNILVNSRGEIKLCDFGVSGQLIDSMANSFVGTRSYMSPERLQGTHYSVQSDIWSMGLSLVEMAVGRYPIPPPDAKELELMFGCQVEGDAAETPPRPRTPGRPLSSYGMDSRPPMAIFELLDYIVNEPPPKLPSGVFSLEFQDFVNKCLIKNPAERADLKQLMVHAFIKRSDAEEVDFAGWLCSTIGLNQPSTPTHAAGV

Row | IC50 (SGK1) [nM] | Compound | other results
1 | 100 to 10000 | c1ccc(Nc2nnc(-c3c[nH]c4ncccc34)o2)cc1 [Compound A2, phenyl-[5-(1H-pyrrolo[2,3-b]pyridin-3-yl)-1,3,4-oxadiazol-2-yl]amine] | 
2 | 100 to 10000 | Nc1nnc(-c2c[nH]c3ncccc23)o1 [Compound A3, 5-(1H-pyrrolo[2,3-b]pyridin-3-yl)-1,3,4-oxadiazol-2-ylamine] | 
3 | 1 to 100 | Fc1cccc(CNc2nnc(-c3c[nH]c4ncccc34)o2)c1 [Compound A5] | IC50 (Met kinase): 100 to 10000 nM

Continued, compound first:

Row | Compound | IC50 (SGK1) [nM] | other results
4 | COc1cccc(CNc2nnc(-c3c[nH]c4ncccc34)o2)c1 [Compound A1, (3-methoxybenzyl)-[5-(1H-pyrrolo[2,3-b]pyridin-3-yl)-1,3,4-oxadiazol-2-yl]amine] | 1 to 100 | IC50 (MKK1): 1 to 100 nM; IC50 (SAPK3): 100 to 10000 nM; IC50 (AMPK): 1 to 100 nM; IC50 (CHK2): 1 to 100 nM; IC50 (GSK3-beta): 1 to 100 nM
5 | COc1cccc(CNc2nnc(-c3c[nH]c4ncc(Br)cc34)o2)c1 [Compound A4] | 1 to 100 | IC50 (Met kinase): 100 to 10000 nM
6 | COc1cccc(CNc2nnc(-c3c[nH]c4ncc(-c5cn[nH]c5)cc34)o2)c1 [Compound A6] | 100 to 10000 | 
7 | COc1cccc(CNc2nnc(-c3c[nH]c4ncccc34)n2Cc2ccccc2)c1 [Compound A9, [4-benzyl-5-(1H-pyrrolo[2,3-b]pyridin-3-yl)-4H-1,2,4-triazol-3-yl]-(3-methoxybenzyl)amine] | 100 to 10000 | 
8 | COc1cccc(CNc2nnc(-c3c[nH]c4ncccc34)n2N)c1 [Compound A10, N*3*-(3-methoxybenzyl)-5-(1H-pyrrolo[2,3-b]pyridin-3-yl)-1,2,4-triazole-3,4-diamine] | 100 to 10000 | 
